PubChem BioAssay (NCI)
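Exposure lasted 48 hours, with cells grown in 96-well plates and compounds tested at five concentrations. TGI is the concentration that stops growth completely.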

How the values were obtained:
Test in all cases: NCI tumour cell line growth inhibition, 48 h
OVCAR-3 ovarian = system: OVCAR-3 ovarian
SK-MEL-5 melanoma = system: SK-MEL-5 melanoma
MCF7 breast = system: MCF7 breast
SN12K1 renal = system: SN12K1 renal
UO-31 renal = system: UO-31 renal
SN12C renal = system: SN12C renal
LOX IMVI melanoma = system: LOX IMVI melanoma
A498 renal = system: A498 renal
NCI/ADR-RES ovarian = system: NCI/ADR-RES ovarian
OVCAR-4 ovarian = system: OVCAR-4 ovarian
MOLT-4 leukemia = system: MOLT-4 leukemia
OVCAR-8 ovarian = system: OVCAR-8 ovarian
P388/ADR leukemia = system: P388/ADR leukemia
RPMI-8226 leukemia = system: RPMI-8226 leukemia
HOP-18 NSCLC = system: HOP-18 NSCLC
A549 NSCLC = system: A549 NSCLC
TK-10 renal = system: TK-10 renal
ACHN renal = system: ACHN renal
LXFL 529 NSCLC = system: LXFL 529 NSCLC
M14 melanoma = system: M14 melanoma

Compound: CN(C)CCNC(=O)c1cc(Cl)cc2ccc(-c3ccccc3)nc12
- TGI (OVCAR-3 ovarian): 15.8 µM
- TGI (SK-MEL-5 melanoma): 3.82 µM
- TGI (MCF7 breast): 14.5 µM
- TGI (SN12K1 renal): 5.81 µM
- TGI (UO-31 renal): 4.76 µM
- TGI (SN12C renal): 12.9 µM
- TGI (LOX IMVI melanoma): 6.7 µM
- TGI (A498 renal): 15.8 µM
- TGI (NCI/ADR-RES ovarian): 10.9 µM
- TGI (OVCAR-4 ovarian): 13.7 µM
- TGI (MOLT-4 leukemia): 2.92 µM
- TGI (OVCAR-8 ovarian): 13.2 µM
- TGI (P388/ADR leukemia): 7.95 µM
- TGI (RPMI-8226 leukemia): 5.32 µM
- TGI (HOP-18 NSCLC): 12.5 µM
- TGI (A549 NSCLC): 12.4 µM

Compound: CCCCOc1ccc(OCCCCCCCCCC[N+](C)(C)C)cc1
- TGI (OVCAR-3 ovarian): 7.89 µM
- TGI (SK-MEL-5 melanoma): 3.81 µM
- TGI (MCF7 breast): 14.8 µM
- TGI (SN12K1 renal): 8.54 µM
- TGI (UO-31 renal): 23 µM
- TGI (SN12C renal): 12.2 µM
- TGI (LOX IMVI melanoma): 3.81 µM
- TGI (A498 renal): 28.6 µM
- TGI (NCI/ADR-RES ovarian): > 100 µM
- TGI (OVCAR-4 ovarian): 14.8 µM
- TGI (MOLT-4 leukemia): 3.27 µM
- TGI (OVCAR-8 ovarian): 22 µM
- TGI (P388/ADR leukemia): 17.8 µM
- TGI (RPMI-8226 leukemia): 2.33 µM
- TGI (HOP-18 NSCLC): 13.7 µM
- TGI (A549 NSCLC): 15.2 µM

Compound: NCCCCNCCCNC(=O)c1nc(-c2nc(CCN)sc2Cl)sc1Cl
- TGI (TK-10 renal): > 100 µM
- TGI (OVCAR-3 ovarian): > 100 µM
- TGI (SK-MEL-5 melanoma): > 100 µM
- TGI (UO-31 renal): > 100 µM
- TGI (ACHN renal): > 100 µM
- TGI (SN12C renal): > 100 µM
- TGI (A498 renal): > 100 µM
- TGI (OVCAR-4 ovarian): 71.8 µM
- TGI (MOLT-4 leukemia): > 100 µM
- TGI (OVCAR-8 ovarian): > 100 µM
- TGI (LXFL 529 NSCLC): 11.1 µM
- TGI (RPMI-8226 leukemia): > 100 µM
- TGI (M14 melanoma): > 100 µM
- TGI (A549 NSCLC): > 100 µM

Compound: Cc1cc(C)nc(NS(=O)(=O)c2ccc(Nc3c4ccccc4nc4c(C(=O)N5CCN(CCOS(C)(=O)=O)CC5)cccc34)cc2)n1
- TGI (TK-10 renal): > 100 µM
- TGI (OVCAR-3 ovarian): > 100 µM
- TGI (SK-MEL-5 melanoma): > 100 µM
- TGI (UO-31 renal): > 100 µM
- TGI (ACHN renal): > 100 µM
- TGI (SN12C renal): > 100 µM
- TGI (A498 renal): > 100 µM
- TGI (OVCAR-4 ovarian): > 100 µM
- TGI (MOLT-4 leukemia): > 100 µM
- TGI (OVCAR-8 ovarian): > 100 µM
- TGI (RPMI-8226 leukemia): > 100 µM
- TGI (M14 melanoma): > 100 µM
- TGI (A549 NSCLC): > 100 µM
